{"source": "patent US20040053948A1", "about": "“Compounds, compositions and methods” (Cytokinetics, Inc., priority 2002, published 2004)", "origin": "cited, not measured here", "tested_on": "A549 cells", "details": "data provided by National Cancer Institute, Developmental Therapeutic Program", "data": [{"smiles": "O=c1[nH]cc(F)c(=O)[nH]1", "note": "[5-fluorouracil]", "values": [{"measurement": "GI50", "result": 1000, "unit": "nM"}]}, {"smiles": "COc1cccc2c1C(=O)c1c(O)c3c(c(O)c1C2=O)C[C@@](O)(C(=O)CO)C[C@@H]3O[C@H]1C[C@H](N)[C@H](O)[C@H](C)O1", "note": "[doxorubicin]", "values": [{"measurement": "GI50", "result": 63, "unit": "nM"}]}, {"smiles": "NC(=O)NO", "note": "[hydroxyurea]", "values": [{"measurement": "GI50", "result": 500000, "unit": "nM"}]}, {"smiles": "CC(=O)O[C@H]1C(=O)[C@@]2(C)[C@H]([C@H](OC(=O)c3ccccc3)[C@]3(O)C[C@H](OC(=O)[C@H](O)[C@@H](NC(=O)c4ccccc4)c4ccccc4)C(C)=C1C3(C)C)[C@]1(OC(C)=O)CO[C@@H]1C[C@@H]2O", "note": "[paclitaxel]", "values": [{"measurement": "GI50", "result": 4, "unit": "nM"}]}]}
